Measured values reported in US8916524B2, “Composition for improving brain function and method for improving brain function” (Calpis Co., Ltd., priority 2010, dated 2014).

Test system: scopolamine-induced amnesia
Assay: Y-shaped maze test of spontaneous alternation behavior, prophylactic activity against scopolamine-induced amnesia
Assay type: in vivo, mice (ddY strain)
Settings: male ddY mice; 5000 nmol/kg weight once orally 60 minutes before Y-shaped maze test; scopolamine 1 mg/kg weight subcutaneously 30 minutes before test
Experimental: Male mice (n=15) of the ddY strain (approximately 7-week old) were used, and they took food and water ad lib. Test substances used were 500 nmol/kg weight (230 ug/kg weight) and 5000 nmol/kg weight (2300 ug/kg weight) of Val-Pro-Pro-Phe (SEQ ID NO: 2). The test substances were administered to the mice once orally 60 minutes before the execution of a Y-shaped maze test for evaluation of spontaneous alternation behavior. Further, 30 minutes before the execution of the Y-shaped maze test, 1 mg/kg weight of scopolamine was subcutaneously administered on the backs of the mice in order to induce brain dysfunction (dysmnesia and/or cognitive impairment) in the mice. In the Y-shaped maze test, a Y-shaped maze was used as an experimental device, in which the length of each arm was 40 cm, the height of the wall was 12 cm, the width of the floor was 3 cm, and the width of the upper part was 10 cm, and three arms were connected to each other at an angle of 120 degrees. […] The sequence of the arms each of the mice entered was recorded. The number of entries by each of the mice for each of the arms during the measurement time was counted to be the total number of entries. […] The percentage of spontaneous alternation behavior was calculated by dividing the number of spontaneous alternation behavior by a number obtained by subtracting 2 from the total number of entries, and multiplying a resultant number by 100. […] The measured values were expressed in the form of mean±standard error for each group. A significant difference between the control group and the scopolamine control group was calculated using Student's t-test. Further, a significant difference between the scopolamine control group and the VPPF-administered group was calculated using Dunnett's multiple comparison test after one-way analysis of variance.
Male mice (n=15) of the ddY strain (approximately 7-week old) were used, and they took food and water ad lib. […] The arms each of the mice entered were sequentially recorded. […]

Substance | prophylactic activity against amnesia (percentage of spontaneous alternation behavior)
Val-Pro-Pro-Phe (VPPF; Synthetic functional peptide) | had a prophylactic activity against amnesia
Asn-Ile-Pro-Pro-Leu (NIPPL; Synthetic functional peptide) | had a prophylactic activity against amnesia
Ile-Pro-Pro-Leu (IPPL; Synthetic functional peptide) | had a prophylactic activity against amnesia
